Results published in patent US12180193B2, “Accelerating fibrosarcoma protein degrading compounds and associated methods of use” (Arvinas Operations, Inc., priority 2020, dated 2024).

Tests used:
BRAF G466V = molecular target: T1, BRAF G466V (Homo sapiens, UniProt P15056, G466V); test: Cellular assay of target protein degradation, T-Rex 293 cells stably transfected with HA-BRAF G466V (HA immunofluorescence, high content imaging); assay type: cell-based; settings: T-Rex 293 HA-BRAF G466V; for DC50: half maximal degradation, read-out: BRaf G466V DC50; for Dmax: maximum degradation observed
T1 construct: expressed in transfected cells
Method in brief: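 24 h compound, 30 nM–3 pM final, 0.1% DMSO, 37° C; HA-BRAF G466V induced with 0.75 ng/mL doxycycline. PFA fix, Triton perm, anti-HA + Alexa fluor secondary, Hoechst/phalloidin counterstain; imaging. DC50, Dmax (% of control).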

BRAF V600E = molecular target: T2, BRAF V600E (Homo sapiens, UniProt P15056, V600E); test: Cellular assay of target protein degradation, T-Rex 293 cells stably transfected with HA-BRAF_V600E (HA immunofluorescence, high content imaging); assay type: cell-based; settings: T-Rex 293 HA-BRAF V600E; for DC50: half maximal degradation, read-out: BRaf V600E DC50; for Dmax: maximum degradation observed
T2 construct: expressed in transfected cells
Method in brief: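 24 h compound exposure, 1 μM–0.1 nM final, 0.1% DMSO, 37 °C; cells induced with 1 ng/mL doxycycline. PFA fix, Triton permeabilize, anti-HA overnight 4 °C, Hoechst/phalloidin counterstain. Output: DC50, Dmax as % control.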

T2 sequence (P15056 whole entry V600E): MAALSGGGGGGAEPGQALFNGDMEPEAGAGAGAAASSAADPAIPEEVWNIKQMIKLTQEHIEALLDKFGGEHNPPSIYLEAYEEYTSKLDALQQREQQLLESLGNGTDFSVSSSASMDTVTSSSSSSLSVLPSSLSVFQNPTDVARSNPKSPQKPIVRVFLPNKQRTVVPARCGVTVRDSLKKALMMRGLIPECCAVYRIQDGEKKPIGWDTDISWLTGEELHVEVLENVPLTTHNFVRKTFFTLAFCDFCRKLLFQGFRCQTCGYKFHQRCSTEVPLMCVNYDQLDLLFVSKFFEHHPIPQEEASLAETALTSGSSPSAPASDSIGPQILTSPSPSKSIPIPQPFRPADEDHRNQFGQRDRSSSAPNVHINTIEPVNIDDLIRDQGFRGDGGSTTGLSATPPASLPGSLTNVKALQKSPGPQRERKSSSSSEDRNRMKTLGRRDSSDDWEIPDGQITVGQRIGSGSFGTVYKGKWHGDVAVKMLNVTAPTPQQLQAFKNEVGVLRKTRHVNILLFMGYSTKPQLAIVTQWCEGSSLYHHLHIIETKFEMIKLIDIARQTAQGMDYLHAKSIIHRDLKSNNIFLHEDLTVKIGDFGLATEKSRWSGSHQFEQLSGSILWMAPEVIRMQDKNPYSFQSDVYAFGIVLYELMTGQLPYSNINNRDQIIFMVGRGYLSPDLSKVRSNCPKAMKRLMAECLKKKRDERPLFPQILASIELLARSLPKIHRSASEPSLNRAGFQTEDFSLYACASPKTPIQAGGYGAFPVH
T1 sequence (P15056 whole entry G466V): as the sequence (P15056 whole entry V600E) above, with G466V, E600V counted along it

| DC50 (BRAF G466V) [nM] | Dmax (BRAF G466V) [%] | DC50 (BRAF V600E) [nM] | Dmax (BRAF V600E) [%] | SMILES |
| --- | --- | --- | --- | --- |
| 1 to 10 | > 70 | 5 to 50 | 35 to 70 | CCCS(=O)(=O)Nc1ccc(F)c(C(=O)c2c[nH]c3ncc(-c4ccc(N5CCC(CN6CC7(C6)CN(c6ccc8c(c6)CN([C@@H]6CCC(=O)NC6=O)C8=O)C7)CC5)cc4)cc23)c1F [Compound 229, N-{3-[5-(4-{4-[(6-{2-[(3R)-2,6-dioxopiperidin-3-yl]-1-oxo-2,3-dihydro-1H-isoindol-5-yl}-2,6-diazaspiro[3.3]heptan-2-yl)methyl]piperidin-1-yl}phenyl)-1H-pyrrolo [2,3-b]pyridine-3-carbonyl]-2,4-difluorophenyl} propane-1-sulfonamide] |
| > 30 | – | > 500 | – | O=C1CC[C@@H](NC(=O)N2CCCc3c(N4CCC(CN5CCN(c6ccc(-c7cnc8[nH]cc(C(=O)c9c(F)ccc(NS(=O)(=O)N%10CC[C@@H](F)C%10)c9F)c8c7)cc6)CC5)CC4)ccnc32)C(=O)N1 [Compound 372, 5-(4-{[4-(4-{3-[2,6-difluoro-3-({[(3R)-3-fluoropyrrolidin-1-yl]sulfonyl}amino)benzoyl]-1H-pyrrolo[2,3-b]pyridin-5-yl}phenyl)piperazin-1-yl]methyl}piperidin-1-yl)-N-[(3R)-2,6-dioxopiperidin-3-yl]-1,2,3,4-tetrahydro-1,8-naphthyridine-1-carboxamide] |
| > 30 | – | > 500 | – | O=C1CCC(NC(=O)c2ccc(CCCN3CC4(C3)CN(c3ccc(-c5cnc6[nH]cc(C(=O)c7c(F)ccc(NS(=O)(=O)N8CC[C@@H](F)C8)c7F)c6c5)cc3)C4)cc2F)C(=O)N1 (stereo partly drawn) [Compound 356, 4-{3-[6-(4-{3-[2,6-difluoro-3-({[(3R)-3-fluoropyrrolidin-1-yl]sulfonyl}amino)benzoyl]-1H-pyrrolo[2,3-b]pyridin-5-yl}phenyl)-2,6-diazaspiro[3.3]heptan-2-yl]propyl}-N-(2,6-dioxopiperidin-3-yl)-2-fluorobenzamide] |
| 1 to 10 | > 70 | 50 to 500 | 35 to 70 | O=C1CCC(N2Cc3cc(OCCCOC4CCN(c5ccc(-c6cnc7[nH]cc(C(=O)c8c(F)ccc(NS(=O)(=O)N9CC[C@@H](F)C9)c8F)c7c6)cc5)CC4)ccc3C2=O)C(=O)N1 (stereo partly drawn) [Compound 139, (3R)-N-[3-(5-{4-[4-(3-{[2-(2,6-dioxopiperidin-3-yl)-1-oxo-2,3-dihydro-1H-isoindol-5-yl]oxy}propoxy)piperidin-1-yl]phenyl}-1H-pyrrolo[2,3-b]pyridine-3-carbonyl)-2,4-difluorophenyl]-3-fluoropyrrolidine-1-sulfonamide] |
| 1 to 10 | > 70 | 5 to 50 | 35 to 70 | O=C1CC[C@@H](N2Cc3cc(C4CCN(CC5CCN(c6ccc(-c7cnc8[nH]cc(C(=O)c9c(F)ccc(NS(=O)(=O)N%10CCCC%10)c9F)c8c7)cc6)CC5)CC4)ccc3C2=O)C(=O)N1 [Compound 231, N-{3-[5-(4-{4-[(4-{2-[(3R)-2,6-dioxopiperidin-3-yl]-1-oxo-2,3-dihydro-1H-isoindol-5-yl}piperidin-1-yl)methyl]piperidin-1-yl}phenyl)-1H-pyrrolo[2,3-b]pyridine-3-carbonyl]-2,4-difluorophenyl}pyrrolidine-1-sulfonamide] |
| 1 to 10 | > 70 | < 5 | < 35 | O=C1CCC(N2Cc3cc(C4CCN(CCC5CCN(c6ccc(-c7cnc8[nH]cc(C(=O)c9c(F)ccc(NS(=O)(=O)N%10CC[C@@H](F)C%10)c9F)c8c7)cc6)CC5)CC4)ccc3C2=O)C(=O)N1 (stereo partly drawn) [Compound 127, (3R)-N-[3-(5-{4-[4-(2-{4-[2-(2,6-dioxopiperidin-3-yl)-1-oxo-2,3-dihydro-1H-isoindol-5-yl]piperidin-1-yl}ethyl)piperidin-1-yl]phenyl}-1H-pyrrolo[2,3-b]pyridine-3-carbonyl)-2,4-difluorophenyl]-3-fluoropyrrolidine-1-sulfonamide] |
| < 1 | 35 to 70 | 5 to 50 | 35 to 70 | O=C1CC[C@H](N2Cc3cc(/C=C/CN4CC5(C4)CN(c4ccc(-c6cnc7[nH]cc(C(=O)c8c(F)ccc(NS(=O)(=O)N9CC[C@@H](F)C9)c8F)c7c6)cc4)C5)ccc3C2=O)C(=O)N1 [Compound 38, (3R)-N-{3-[5-(4-{6-[(2E)-3-{2-[(3S)-2,6-dioxopiperidin-3-yl]-1-oxo-2,3-dihdyro-1H-isoindol-5-yl}prop-2-en-1-yl]-2,6-diazaspiro[3.3]heptan-2-yl}phenyl)-1H-pyrrolo[2,3-b]pyridine-3-carbonyl]-2,4-difluorophenyl}-3-fluoropyrrolidine-1-sulfonamide] |
| 1 to 10 | > 70 | 5 to 50 | 35 to 70 | O=C1CCC(N2Cc3cc(C4CCN(CC5CC6(C5)CN(c5ccc(-c7cnc8[nH]cc(C(=O)c9c(F)ccc(NS(=O)(=O)N%10CC[C@@H](F)C%10)c9F)c8c7)cn5)C6)CC4)ccc3C2=O)C(=O)N1 (stereo partly drawn) [Compound 103, (3R)-N-[3-(5-{6-[6-({4-[2-(2,6-dioxopiperidin-3-yl)-1-oxo-2,3-dihydro-1H-isoindol-5-yl]piperidin-1-yl}methyl)-2-azaspiro [3.3]heptan-2-yl]pyridin-3-yl}-1H-pyrrolo[2,3-b]pyridine-3-carbonyl)-2,4-difluorophenyl]-3-fluoropyrrolidine-1-sulfonamide] |
| < 1 | 35 to 70 | 50 to 500 | 35 to 70 | O=C1CC[C@H](N2Cc3cc([C@@H](O)CCN4CCN(c5ccc(-c6cnc7[nH]cc(C(=O)c8c(F)ccc(NS(=O)(=O)N9CC[C@@H](F)C9)c8F)c7c6)cc5)CC4)c(F)cc3C2=O)C(=O)N1 [Compound 300, (3R)-N-{3-[5-(4-{4-[(3S)-3-{2-[(3S)-2,6-dioxopiperidin-3-yl]-6-fluoro-1-oxo-2,3-dihydro-1H-isoindol-5-yl}-3-hydroxypropyl]piperazin-1-yl}phenyl)-1H-pyrrolo[2,3-b]pyridine-3-carbonyl]-2,4-difluorophenyl}-3-fluoropyrrolidine-1-sulfonamide] |
| 1 to 10 | 35 to 70 | 5 to 50 | 35 to 70 | CN(CCN1CCN(c2ccc(-c3cnc4[nH]cc(C(=O)c5c(F)ccc(NS(=O)(=O)N6CC[C@@H](F)C6)c5F)c4c3)cc2)CC1)[C@H]1C[C@@H](Oc2ccc3c(c2)CN(C2CCC(=O)NC2=O)C3=O)C1 (stereo partly drawn) [Compound 126, (3R)-N-[2,4-difluoro-3-(5-{4-[4-(2-{methyl[(1s,3s)-3-{[2-(2,6-dioxopiperidin-3-yl)-1-oxo-2,3-dihydro-1H-isoindol-5-yl]oxy}cyclobutyl]amino}ethyl)piperazin-1-yl]phenyl}-1H-pyrrolo[2,3-b]pyridine-3-carbonyl)phenyl]-3-fluoropyrrolidine-1-sulfonamide] |
| 1 to 10 | 35 to 70 | > 500 | > 70 | O=C1CC[C@@H](N2Cc3cc(N4CCC(CN5CCN(c6ccc(-c7cnc8[nH]cc(C(=O)c9c(F)ccc(NS(=O)(=O)N%10CC[C@@H](F)C%10)c9F)c8c7)cc6)CC5)CC4)c(F)cc3C2=O)C(=O)N1 [Compound 41, (3R)-N-{3-[5-(4-{4-[(1-{2-[(3R)-2,6-dioxopiperidin-3-yl]-6-fluoro-1-oxo-2,3-dihydro-1H-isoindol-5-yl}piperidin-4-yl)methyl]piperazin-1-yl}phenyl)-1H-pyrrolo[2,3-b]pyridine-3-carbonyl]-2,4-difluorophenyl}-3-fluoropyrrolidine-1-sulfonamide] |
| 1 to 10 | 35 to 70 | 50 to 500 | 35 to 70 | O=C1CC[C@H](N2Cc3cc(N4CC(CN5CCN(C6(c7ncc(-c8cnc9[nH]cc(C(=O)c%10c(F)ccc(NS(=O)(=O)N%11CC[C@@H](F)C%11)c%10F)c9c8)cn7)CC6)CC5)C4)ccc3C2=O)C(=O)N1 [Compound 202, (3R)-N-(3-{5-[2-(1-{4-[(1-{2-[(3S)-2,6-dioxopiperidin-3-yl]-1-oxo-2,3-dihydro-1H-isoindol-5-yl}azetidin-3-yl)methyl]piperazin-1-yl}cyclopropyl)pyrimidin-5-yl]-1H-pyrrolo[2,3-b]pyridine-3-carbonyl}-2,4-difluorophenyl)-3-fluoropyrrolidine-1-sulfonamide] |
| 1 to 10 | 35 to 70 | 50 to 500 | 35 to 70 | O=C1CCC(N2Cc3cc(N4CCC(C5CN(c6ccc(-c7cnc8[nH]cc(C(=O)c9c(F)ccc(NS(=O)(=O)N%10CC[C@@H](F)C%10)c9F)c8c7)cc6)C5)CC4)ccc3C2=O)C(=O)N1 (stereo partly drawn) [Compound 293, (3R)-N-(3-{5-[4-(3-{1-[2-(2,6-dioxopiperidin-3-yl)-1-oxo-2,3-dihydro-1H-isoindol-5-yl]piperidin-4-yl}azetidin-1-yl)phenyl]-1H-pyrrolo[2,3-b]pyridine-3-carbonyl}-2,4-difluorophenyl)-3-fluoropyrrolidine-1-sulfonamide] |
| < 1 | > 70 | 5 to 50 | 35 to 70 | CCCS(=O)(=O)Nc1ccc(F)c(C(=O)c2c[nH]c3ncc(-c4ccc(N5CCC(CN6CC7(C6)CN(c6ccc8c(c6)CN([C@H]6CCC(=O)NC6=O)C8=O)C7)CC5)cc4)cc23)c1F [Compound 228, N-{3-[5-(4-{4-[(6-{2-[(3S)-2,6-dioxopiperidin-3-yl]-1-oxo-2,3-dihydro-1H-isoindol-5-yl}-2,6-diazaspiro[3.3]heptan-2-yl)methyl]piperidin-1-yl}phenyl)-1H-pyrrolo [2,3-b]pyridine-3-carbonyl]-2,4-difluorophenyl} propane-1-sulfonamide] |
